From the NIST ThermoML archive (doi:10.1021/je050183a)
± gives the expanded uncertainty stated by the source.

What was measured:
[1] = xn = mol fraction of the nth substance listed; conditions: 101 kPa, Liquid; for viscosity: Capillary tube (Ostwald / Ubbelohde) method; for speed of sound: Linear variable-path acoustic interferometer; for mass density: Pycnometric method
[2] = refractive index (Na D-line) (dimensionless); xn = mol fraction of the nth substance listed; conditions: 298.15 K, 101 kPa, Liquid, Standard Abbe refractometry

CC1OC(C)OC(C)O1 (stereo not drawn) [2,4,6-trimethyl-1,3,5-trioxane] + CCOC(=O)OCC
[1]
Conditions	mass density, 288.15 K [kg/m3]	mass density, 298.15 K [kg/m3]	speed of sound, 288.15 K [m/s]	speed of sound, 298.15 K [m/s]	viscosity, 288.15 K [mPa·s]	viscosity, 298.15 K [mPa·s]
x1 = 0.0215	980.99 ± 1.3	969.57 ± 1.3	1224 ± 2.7	1173.8 ± 2.7	0.877 ± 0.012	0.756 ± 0.01
x1 = 0.0425	981.54 ± 1.3	969.99 ± 1.3	1222.6 ± 2.7	1174.2 ± 2.7	0.885 ± 0.012	0.763 ± 0.01
x1 = 0.0615	982.03 ± 1.3	970.36 ± 1.3	1221.4 ± 2.7	1174.5 ± 2.7	0.892 ± 0.012	0.768 ± 0.01
x1 = 0.0816	982.54 ± 1.3	970.76 ± 1.3	1220.3 ± 2.7	1174.8 ± 2.6	0.899 ± 0.012	0.774 ± 0.01
x1 = 0.1036	983.08 ± 1.3	971.19 ± 1.3	1219.1 ± 2.7	1175 ± 2.6	0.906 ± 0.012	0.779 ± 0.01
x1 = 0.1911	985.12 ± 1.4	972.92 ± 1.4	1215.7 ± 2.7	1175.6 ± 2.6	0.931 ± 0.012	0.798 ± 0.011
x1 = 0.317	987.74 ± 1.4	975.41 ± 1.4	1213.4 ± 2.7	1175.3 ± 2.6	0.959 ± 0.013	0.819 ± 0.011
x1 = 0.4272	989.8 ± 1.4	977.57 ± 1.4	1213.2 ± 2.7	1174.4 ± 2.6	0.985 ± 0.013	0.836 ± 0.011
x1 = 0.5162	991.35 ± 1.4	979.28 ± 1.4	1213.8 ± 2.7	1173.5 ± 2.6	1.011 ± 0.013	0.854 ± 0.011
x1 = 0.608	992.87 ± 1.4	981 ± 1.3	1214.8 ± 2.7	1172.6 ± 2.6	1.047 ± 0.014	0.878 ± 0.012
x1 = 0.7032	994.41 ± 1.3	982.74 ± 1.3	1215.7 ± 2.7	1171.9 ± 2.6	1.098 ± 0.014	0.913 ± 0.012
x1 = 0.7984	995.94 ± 1.3	984.41 ± 1.3	1216.2 ± 2.7	1171.5 ± 2.6	1.167 ± 0.015	0.962 ± 0.013
x1 = 0.8957	997.54 ± 1.4	986.04 ± 1.3	1216.7 ± 2.7	1171.8 ± 2.6	1.26 ± 0.017	1.028 ± 0.014
x1 = 1	999.69 ± 1.3	988.35 ± 1.3	1217.7 ± 2.7	1174.5 ± 2.6	1.374 ± 0.018	1.107 ± 0.015

[2]
Conditions	refractive index
x1 = 0.0215	1.3835 ± 0.0008
x1 = 0.0425	1.384 ± 0.0008
x1 = 0.0615	1.3844 ± 0.0008
x1 = 0.0816	1.3848 ± 0.0008
x1 = 0.1036	1.3853 ± 0.0008
x1 = 0.1911	1.3873 ± 0.0008
x1 = 0.317	1.3901 ± 0.0008
x1 = 0.4272	1.3926 ± 0.0008
x1 = 0.5162	1.3945 ± 0.0008
x1 = 0.608	1.3963 ± 0.0008
x1 = 0.7032	1.3982 ± 0.0008
x1 = 0.7984	1.3999 ± 0.0008
x1 = 0.8957	1.4015 ± 0.0008
x1 = 1	1.4029 ± 0.0008
